Series [1] in a line: Drug distribution in BALB/c mouse spleen measured at 4 mg/kg, po or ip after 0.5 hrs. Type of series: ADME, organism-based. As to conditions: in vivo.
The nature of series [2]: Drug distribution in BALB/c mouse gut measured at 4 mg/kg, po or ip after 2 to 8 hrs after 0.5 hrs. As to conditions: in vivo, time 2-8 hrs. Type of series: ADME, organism-based.
Series [3] can be described thus: Drug distribution in tumor of BALB/c mouse xenografted with human MV4-11 cells assessed as measured after 0.5 hrs. Type of series: ADME. As to conditions: read-out: Ct.
Series [4] is described as follows: Drug distribution in BALB/c mouse gut measured at 4 mg/kg, po or ip after 0.5 hrs after 0.5 hrs. Type of series: ADME, organism-based. As to conditions: in vivo.
Series [5] is described as follows: Drug distribution in tumor of BALB/c mouse xenografted with human MV4-11 cells assessed as measured after 2 hrs. Type of series: ADME. As to conditions: read-out: Ct.
The nature of series [6]: Drug distribution in BALB/c mouse liver measured at 4 mg/kg, po or ip after 0.5 hrs after 0.5 hrs. Type of series: ADME, organism-based. As to conditions: in vivo.
Series [7] can be described thus: Drug distribution in BALB/c mouse kidney measured at 4 mg/kg, po or ip after 0.5 hrs after 0.5 hrs. Type of series: ADME, organism-based. As to conditions: in vivo.
Series [8] concerns MV4-11. Kind of series: Antitumor activity against human MV4-11 cells xenografted in BALB/c mouse assessed as tumor growth inhibition at 4 mg/kg, ip administered for 24 days. As to conditions: time 24.0 day. Type of series: functional, organism-based.
A short description of series [9]: Plasma concentration in BALB/c mouse xenografted with human AML MV4-11 cells at 4 mg/kg, po. Type of series: ADME, organism-based. As to conditions: in vivo.
Series [10] in a line: Plasma concentration in BALB/c mouse xenografted with human AML MV4-11 cells at 4 mg/kg, ip. As to conditions: in vivo. Type of series: ADME, organism-based.
Series [11] in a line: Drug distribution in BALB/c mouse heart measured at 4 mg/kg, po or ip after 2 to 8 hrs after 0.5 hrs. Type of series: ADME, organism-based. As to conditions: in vivo, time 2-8 hrs.
A short description of series [12]: Drug distribution in BALB/c mouse liver measured at 4 mg/kg, po or ip after 2 to 8 hrs after 0.5 hrs. Type of series: ADME, organism-based. As to conditions: in vivo, time 2-8 hrs.
A short description of series [13]: Drug distribution in tumor of BALB/c mouse xenografted with human MV4-11 cells assessed as measured after 8 hrs. Type of series: ADME. As to conditions: read-out: Ct.
Series [14] deals with MV4-11. Nature of the series: Antitumor activity against human MV4-11 cells xenografted in BALB/c mouse assessed as tumor growth inhibition at 2 to 4 mg/kg, po administered for 24 days. As to conditions: dose 2-4 mg/kg, time 24.0 day. Type of series: functional.
The nature of series [15]: Drug distribution in BALB/c mouse heart measured at 4 mg/kg, po or ip after 0.5 hrs after 0.5 hrs. Type of series: ADME, organism-based. As to conditions: in vivo.
Series [16] can be described thus: Drug uptake in BALB/c mouse xenografted with human AML MV4-11 cells assessed as tumor tissue at 4mg/kg, po measured after 0.5 to 6 hrs by LC-MS/MS. Type of series: ADME, organism-based. As to conditions: in vivo, time 0.5-6 hrs.
Series [17] can be described thus: Drug distribution in BALB/c mouse lung measured at 4 mg/kg, po or ip after 2 to 8 hrs after 0.5 hrs. As to conditions: in vivo, time 2-8 hrs. Type of series: ADME, organism-based.
Series [18] is described as follows: Drug distribution in BALB/c mouse kidney measured at 4 mg/kg, po or ip after 2 to 8 hrs after 0.5 hrs. Type of series: ADME, organism-based. As to conditions: in vivo, time 2-8 hrs.
The nature of series [19]: Drug distribution in BALB/c mouse brain measured at 4 mg/kg, po or ip after 0.5 hrs after 0.5 hrs. Type of series: ADME, organism-based. As to conditions: in vivo.
Series [20] in a line: Drug distribution in BALB/c mouse brain measured at 4 mg/kg, po or ip after 2 to 8 hrs after 0.5 hrs. As to conditions: in vivo, time 2-8 hrs. Type of series: ADME, organism-based.
A short description of series [21]: Drug distribution in BALB/c mouse spleen measured at 4 mg/kg, po or ip after 2 to 8 hrs after 0.5 hrs. Type of series: ADME, organism-based. As to conditions: in vivo, time 2-8 hrs.
A short description of series [22]: Drug distribution in BALB/c mouse lung measured at 4 mg/kg, po or ip after 0.5 hrs after 0.5 hrs. Type of series: ADME, organism-based. As to conditions: in vivo.
Series [23] in a line: Drug uptake in BALB/c mouse xenografted with human AML MV4-11 cells assessed as tumor tissue at 4 mg/kg ip measured after 0.5 to 6 hrs by LC-MS/MS. As to conditions: in vivo, time 0.5-6 hrs. Type of series: ADME, organism-based.
In series [24] the test system is MV4-11. Kind of series: Antitumor activity against human MV4-11 cells xenografted in BALB/c mouse assessed as tumor growth inhibition at 4 mg/kg, po administered for 24 days. Type of series: functional, organism-based. As to conditions: time 24.0 day.
Series [25] deals with T1, Protein deacetylase HDAC6 (Homo sapiens, UniProt Q9UBN7).
T1 sequence (Q9UBN7 whole entry): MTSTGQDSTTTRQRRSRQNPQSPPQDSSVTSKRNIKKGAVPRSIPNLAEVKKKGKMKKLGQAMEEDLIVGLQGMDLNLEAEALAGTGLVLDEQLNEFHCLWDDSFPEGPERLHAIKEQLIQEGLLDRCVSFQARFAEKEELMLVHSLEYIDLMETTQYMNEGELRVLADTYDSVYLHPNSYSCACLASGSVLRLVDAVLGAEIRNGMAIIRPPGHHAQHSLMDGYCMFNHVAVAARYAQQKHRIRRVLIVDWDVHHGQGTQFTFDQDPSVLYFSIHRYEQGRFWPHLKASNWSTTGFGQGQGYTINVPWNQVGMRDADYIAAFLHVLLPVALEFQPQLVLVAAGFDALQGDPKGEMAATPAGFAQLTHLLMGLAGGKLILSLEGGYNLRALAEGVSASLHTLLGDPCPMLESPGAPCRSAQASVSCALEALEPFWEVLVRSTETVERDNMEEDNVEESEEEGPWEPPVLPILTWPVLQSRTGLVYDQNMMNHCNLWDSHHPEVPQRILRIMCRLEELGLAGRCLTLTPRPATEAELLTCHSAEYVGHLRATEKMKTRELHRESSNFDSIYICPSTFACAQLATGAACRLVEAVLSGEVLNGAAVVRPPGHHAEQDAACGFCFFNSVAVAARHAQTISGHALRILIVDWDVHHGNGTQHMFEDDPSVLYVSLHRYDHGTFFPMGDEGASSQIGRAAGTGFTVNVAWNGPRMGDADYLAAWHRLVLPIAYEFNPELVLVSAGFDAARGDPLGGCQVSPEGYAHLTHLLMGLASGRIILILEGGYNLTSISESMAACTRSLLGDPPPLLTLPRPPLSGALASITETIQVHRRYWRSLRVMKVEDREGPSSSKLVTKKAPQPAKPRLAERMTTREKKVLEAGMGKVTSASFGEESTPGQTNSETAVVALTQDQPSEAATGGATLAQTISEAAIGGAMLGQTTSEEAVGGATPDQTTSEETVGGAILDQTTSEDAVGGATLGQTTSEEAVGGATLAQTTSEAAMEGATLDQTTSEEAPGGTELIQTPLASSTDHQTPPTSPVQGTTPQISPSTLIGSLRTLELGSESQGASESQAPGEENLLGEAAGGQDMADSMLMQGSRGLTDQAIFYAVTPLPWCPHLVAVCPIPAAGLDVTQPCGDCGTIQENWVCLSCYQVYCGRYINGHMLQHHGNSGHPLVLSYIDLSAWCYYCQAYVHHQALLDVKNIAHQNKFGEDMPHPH
Kind of series: Inhibition of human recombinant HDAC6 using Boc-Lys(acetyl)-AMC substrate incubated for 2 hrs by fluorescence based assay.

Series [26] is described as follows: AUC (0 to infinity) in CD-1 mouse at 20 mg/kg, po measured upto 24 hrs. Type of series: ADME, organism-based. More on the design: route oral, dose 20 mg/kg, time <=24. As to conditions: in vivo.
The nature of series [27]: Oral bioavailability in CD-1 mouse at 20 mg/kg measured upto 24 hrs. Type of series: ADME, organism-based. As to conditions: in vivo.
Series [28] in a line: Cmax in CD-1 mouse at 20 mg/kg, po measured upto 24 hrs. As to conditions: mouse, in vivo, 24 h. More on the design: route oral, dose 20 mg/kg, time <=24. Type of series: ADME, organism-based.

Molecules are shown by their SMILES. Activity calls are given as the source filed them. The calls are words filed in the database; no cut-off is given here.

For `Cc1[nH]c2ccccc2c1CCNCc1ccc(/C=C/C(=O)NO)cc1` [PANOBINOSTAT], the Drug uptake result in series [1], in series [2], in [4], in series [6], in series [7] and in [9] was “Active” in each case. Further, the Drug uptake result in series [10], in series [11], in series [12], in series [15], in [16] and in [17] was “Active” throughout. Also, the Drug uptake entry in [18], in series [19], in series [20], in series [21], in series [22] and in series [23] was “Active” each time. For the same compound, the concentration at 0.5 h in series [3] was determined as 82.4 ng/g. Besides, the concentration at 2 h in series [5] was 151 ng/g. Further, the outcome with MV4-11 [8] and in the series on MV4-11 [24] was Active. Moreover, in series [13], the concentration at 8 h came out at 108 ng/g. In the series on MV4-11 [14], the TGI entry is “inactive”.
Turning to `CCCNNC(=O)/C=C/c1ccc(CNCCc2c(C)[nH]c3ccccc23)cc1`, the IC50 in series [25] is greater than 10 µM. In [26], this compound gave an AUC of 265 ng·h/mL. The compound also registered a F in [27] of 19.8%. In [28], this compound displayed a Cmax of 45.1 ng/mL.
